Measured values reported in patent US10344032B2, “Agents for treating neurogenic inflammation and neuropathic hyperalgesia related disorders” (PÉCSI TUDOMÁNYEGYETEM, priority 2014, dated 2019).
Where a name gives a salt, the structure may show the parent alone.

**Q.** Which melting point does the source give for `Cc1c(C)n(CCCN(C)C)c2ncnc(NCCc3ccc(N)cc3)c12` (as salt: salt) [Example 12, [2-(4-Amino-phenyl)-ethyl]-[7-(3-dimethylamino-propyl)-5,6-dimethyl-7H-pyrrolo[2,3-d]pyrimidin-4-yl]-amine] here?
**A.** 237.2 to 239.9 °C

**Q.** With `Cc1c(C)n(CCCN(C)C)c2ncnc(NCCc3ccccc3)c12` (as salt: salt) [Example 14, [7-(3-Dimethylamino-propyl)-5,6-dimethyl-7H-pyrrolo[2,3-d]pyrimidin-4-yl]-phenethyl-amine] as the molecule, how does the melting point read?
**A.** 236 to 238 °C

**Q.** With `COc1ccc(CCNc2ncnc3c2c(C)c(C)n3CCCN(C)C)cc1OC` (as salt: salt) [Example 15, [2-(3,4-Dimethoxy-phenyl)-ethyl]-[7-(3-dimethylamino-propyl)-5,6-dimethyl-7H-pyrrolo[2,3-d]pyrimidin-4-yl]-amine] as the molecule, how does the melting point read?
**A.** 156 to 158.2 °C

**Q.** For `Cc1c(C)n(CCCN(C)C)c2ncnc(NCCc3ccccc3Cl)c12` (as salt: salt) [Example 16, [2-(2-Chloro-phenyl)-ethyl]-[7-(3-dimethylamino-propyl)-5,6-dimethyl-7H-pyrrolo[2,3-d]pyrimidin-4-yl]-amine], which melting point is on record?
**A.** 245 to 248 °C

**Q.** With `Cc1c(C)n(CCCN(C)C)c2ncnc(NCCc3cccc(F)c3)c12` (as salt: salt) [Example 17, [7-(3-Dimethylamino-propyl)-5,6-dimethyl-7H-pyrrolo[2,3-d]pyrimidin-4-yl]-[2-(3-fluoro-phenyl)-ethyl]-amine] as the molecule, how does the melting point read?
**A.** 239 to 240.2 °C

**Q.** Which melting point does the source give for `Cc1c(C)n(CCCN(C)C)c2ncnc(NCC(O)c3ccccc3)c12` (stereo not shown) (as salt: salt) [Example 18, 2-[7-(3-Dimethylamino-propyl)-5,6-dimethyl-7H-pyrrolo[2,3-d]pyrimidin-4-ylamino]-1-phenyl-ethanol] here?
**A.** 209 to 212.9 °C

**Q.** For `COc1ccc(CCNc2ncnc3c2ccn3Cc2cncc(Br)c2)cc1OC` (as salt: salt) [Example 37, [7-(5-Bromo-pyridin-3-ylmethyl)-7H-pyrrolo[2,3-d]pyrimidin-4-yl]-[2-(3,4-dimethoxy-phenyl)-ethyl]-amine], which melting point is on record?
**A.** 119 to 120.4 °C

**Q.** With `COc1ccc(CCNc2ncnc3c2c(C)c(C)n3CCCN(C)C)cc1` (as salt: salt) [Example 41, [7-(3-Dimethylamino-propyl)-5,6-dimethyl-7H-pyrrolo[2,3-d]pyrimidin-4-yl]-[2-(4-methoxy-phenyl)-ethyl]-amine] as the molecule, how does the melting point read?
**A.** > 250 °C

**Q.** With `Cc1c(C)n(Cc2ccccc2)c2ncnc(NCCc3ccc(NS(C)(=O)=O)cc3)c12` [Example 5, N-{4-[2-(7-Benzyl-5,6-dimethyl-7H-pyrrolo[2,3-d]pyrimidin-4-ylamino)-ethyl]-phenyl}-methanesulfonamide] as the molecule, how does the melting point read?
**A.** 175.7 to 176.4 °C

**Q.** Which melting point does the source give for `Cc1c(C)n(Cc2ccccc2)c2ncnc(NCCc3ccc(N4C(=O)c5ccccc5C4=O)cc3)c12` [Example 6, 2-{4-[2-(7-Benzyl-5,6-dimethyl-7H-pyrrolo[2,3-d]pyrimidin-4-ylamino)-ethyl]-phenyl}-isoindole-1,3-dione] here?
**A.** 219 to 221 °C

**Q.** With `Cc1c(C)n(Cc2ccccc2)c2ncnc(NCCc3ccc(NC(=O)Nc4ccc(F)cc4F)cc3)c12` [Example 7, 1-{4-[2-(7-Benzyl-5,6-dimethyl-7H-pyrrolo[2,3-d]pyrimidin-4-ylamino)-ethyl]-phenyl}-3-(2,4-difluoro-phenyl)-urea] as the molecule, how does the melting point read?
**A.** 208 to 209.2 °C

**Q.** For `Nc1ccc(CCNc2ncnc3c2ccn3Cc2ccccc2)cc1` [Example 8, [2-(4-Amino-phenyl)-ethyl]-(7-benzyl-7H-pyrrolo[2,3-d]pyrimidin-4-yl)-amine], which melting point is on record?
**A.** > 260 °C

**Q.** Which melting point does the source give for `Cc1c(C)n(Cc2ccco2)c2ncnc(NCCc3ccc(N)cc3)c12` [Example 10, [2-(4-Amino-phenyl)-ethyl]-(7-furan-2-ylmethyl-5,6-dimethyl-7H-pyrrolo[2,3-d]pyrimidin-4-yl)-amine] here?
**A.** 150 to 151.5 °C

**Q.** With `Nc1ccc(CCNc2ncnc3c2ccn3Cc2cncc(Br)c2)cc1` [Example 11, [2-(4-Amino-phenyl)-ethyl]-[7-(5-bromo-pyridin-3-ylmethyl)-7H-pyrrolo[2,3-d]pyrimidin-4-yl]-amine] as the molecule, how does the melting point read?
**A.** 158.8 to 160.9 °C

**Q.** Which melting point does the source give for `COc1ccc(CCNc2ncnc3c2ccn3Cc2ccccc2)cc1` [Example 13, (7-Benzyl-7H-pyrrolo[2,3-d]pyrimidin-4-yl)-[2-(4-methoxy-phenyl)-ethyl]-amine] here?
**A.** 140 to 141 °C

**Q.** For `Cc1c(C)n(Cc2cccc(Cl)c2)c2ncnc(NCCc3cccc(F)c3)c12` [Example 19, [7-(3-Chloro-benzyl)-5,6-dimethyl-7H-pyrrolo[2,3-d]pyrimidin-4-yl]-[2-(3-fluoro-phenyl)-ethyl]-amine], which melting point is on record?
**A.** 232 to 235 °C

**Q.** For `COc1ccc(CCNc2ncnc3c2c(C)c(C)n3Cc2cccc(Cl)c2)cc1OC` [Example 20, [7-(3-Chloro-benzyl)-5,6-dimethyl-7H-pyrrolo[2,3-d]pyrimidin-4-yl]-[2-(3,4-dimethoxy-phenyl)-ethyl]-amine], which melting point is on record?
**A.** 118 to 120 °C

**Q.** For `Cc1c(C)n(Cc2cccc(Cl)c2)c2ncnc(NCCc3ccccc3Cl)c12` [Example 21, [7-(3-Chloro-benzyl)-5,6-dimethyl-7H-pyrrolo[2,3-d]pyrimidin-4-yl]-[2-(2-chloro-phenyl)-ethyl]-amine], which melting point is on record?
**A.** 190 to 192 °C

**Q.** With `COc1ccc(CCN(C)c2ncnc3c2c(C)c(C)n3Cc2cccc(Cl)c2)cc1OC` [Example 22, [7-(3-Chloro-benzyl)-5,6-dimethyl-7H-pyrrolo[2,3-d]pyrimidin-4-yl]-[2-(3,4-dimethoxy-phenyl)-ethyl]-methyl-amine] as the molecule, how does the melting point read?
**A.** 178 to 180 °C

**Q.** With `COc1ccc(CCNc2ncnc3c2c(C)c(C)n3Cc2cccc(Cl)c2)cc1` [Example 23, [7-(3-Chloro-benzyl)-5,6-dimethyl-7H-pyrrolo[2,3-d]pyrimidin-4-yl]-[2-(4-methoxy-phenyl)-ethyl]-amine] as the molecule, how does the melting point read?
**A.** 214 to 216 °C

**Q.** Which melting point does the source give for `COc1ccc(CCNc2ncnc3c2ccn3Cc2ccccc2)cc1OC` [Example 24, (7-Benzyl-7H-pyrrolo[2,3-d]pyrimidin-4-yl)-[2-(3,4-dimethoxy-phenyl)-ethyl]-amine] here?
**A.** 177.3 to 178.3 °C

**Q.** Which melting point does the source give for `Clc1ccccc1CCNc1ncnc2c1ccn2Cc1ccccc1` [Example 25, (7-Benzyl-7H-pyrrolo[2,3-d]pyrimidin-4-yl)-[2-(2-chloro-phenyl)-ethyl]-amine] here?
**A.** 180 to 182.3 °C

**Q.** For `c1ccc(CCNc2ncnc3c2ccn3Cc2ccccc2)cc1` [Example 26, (7-Benzyl-7H-pyrrolo[2,3-d]pyrimidin-4-yl)-phenethyl-amine], which melting point is on record?
**A.** 210 to 211.8 °C

**Q.** With `Fc1cccc(CCNc2ncnc3c2ccn3Cc2ccccc2)c1` [Example 27, (7-Benzyl-7H-pyrrolo[2,3-d]pyrimidin-4-yl)-[2-(3-fluoro-phenyl)-ethyl]-amine] as the molecule, how does the melting point read?
**A.** 116 to 117.5 °C

**Q.** Which melting point does the source give for `OC(CNc1ncnc2c1ccn2Cc1ccccc1)c1ccccc1` (stereo not shown) [Example 29, 2-(7-Benzyl-7H-pyrrolo[2,3-d]pyrimidin-4-ylamino)-1-phenyl-ethanol] here?
**A.** 195 to 197 °C

**Q.** With `Cc1c(C)n(Cc2ccco2)c2ncnc(NCCc3ccccc3Cl)c12` [Example 31, [2-(2-Chloro-phenyl)-ethyl]-(7-furan-2-ylmethyl-5,6-dimethyl-7H-pyrrolo[2,3-d]pyrimidin-4-yl)-amine] as the molecule, how does the melting point read?
**A.** 128.9 to 129.2 °C

**Q.** For `Cc1c(C)n(Cc2ccco2)c2ncnc(NCCc3ccccc3)c12` [Example 32, (7-Furan-2-ylmethyl-5,6-dimethyl-7H-pyrrolo[2,3-d]pyrimidin-4-yl)-phenethyl-amine], which melting point is on record?
**A.** 221 to 223 °C

**Q.** Which melting point does the source give for `Cc1c(C)n(Cc2ccco2)c2ncnc(NCCc3cccc(F)c3)c12` [Example 33, [2-(3-Fluoro-phenyl)-ethyl]-(7-furan-2-ylmethyl-5,6-dimethyl-7H-pyrrolo[2,3-d]pyrimidin-4-yl)-amine] here?
**A.** 89 to 90 °C

**Q.** Which melting point does the source give for `Cc1c(C)n(Cc2ccco2)c2ncnc(NCC(O)c3ccccc3)c12` (stereo not shown) [Example 35, 2-(7-Furan-2-ylmethyl-5,6-dimethyl-7H-pyrrolo[2,3-d]pyrimidin-4-ylamino)-1-phenyl-ethanol] here?
**A.** 167.5 to 168 °C

**Q.** Which melting point does the source give for `Clc1ccccc1CCNc1ncnc2c1ccn2Cc1cncc(Br)c1` [Example 36, [7-(5-Bromo-pyridin-3-ylmethyl)-7H-pyrrolo[2,3-d]pyrimidin-4-yl]-[2-(2-chloro-phenyl)-ethyl]-amine] here?
**A.** 114 to 115 °C

**Q.** For `COc1ccc(CCNc2ncnc3c2ccn3Cc2cncc(Br)c2)cc1` [Example 38, [7-(5-Bromo-pyridin-3-ylmethyl)-7H-pyrrolo[2,3-d]pyrimidin-4-yl]-[2-(4-methoxy-phenyl)-ethyl]-amine], which melting point is on record?
**A.** 100.4 to 100.7 °C

**Q.** For `Cc1c(C)n(Cc2ccccc2)c2ncnc(NCCc3ccccc3Cl)c12` [Example 42, (7-Benzyl-5,6-dimethyl-7H-pyrrolo[2,3-d]pyrimidin-4-yl)-[2-(2-chloro-phenyl)-ethyl]-amine], which melting point is on record?
**A.** 223 to 227 °C

**Q.** For `Cc1c(C)n(Cc2ccccc2)c2ncnc(NCCc3cccc(F)c3)c12` [Example 43, (7-Benzyl-5,6-dimethyl-7H-pyrrolo[2,3-d]pyrimidin-4-yl)-[2-(3-fluoro-phenyl)-ethyl]-amine], which melting point is on record?
**A.** 237.6 to 240 °C

**Q.** For `Cc1c(C)n(Cc2cccc(Cl)c2)c2ncnc(NCCc3ccc(NC(=O)c4ccccc4)cc3)c12` [Example 44, N-(4-{2-[7-(3-Chloro-benzyl)-5,6-dimethyl-7H-pyrrolo[2,3-d]pyrimidin-4-ylamino]-ethyl}-phenyl)-benzamide], which melting point is on record?
**A.** 151 to 152.3 °C

**Q.** Which melting point does the source give for `CC(=O)Nc1ccc(CCNc2ncnc3c2c(C)c(C)n3Cc2cccc(Cl)c2)cc1` [Example 45, N-(4-{2-[7-(3-Chloro-benzyl)-5,6-dimethyl-7H-pyrrolo[2,3-d]pyrimidin-4-ylamino]-ethyl}-phenyl)-acetamide] here?
**A.** 186.1 to 187.2 °C

**Q.** For `CC(=O)Nc1ccc(CCNc2ncnc3c2c(C)c(C)n3Cc2ccco2)cc1` [Example 46, N-{4-[2-(7-Furan-2-ylmethyl-5,6-dimethyl-7H-pyrrolo[2,3-d]pyrimidin-4-ylamino)-ethyl]-phenyl}-acetamide], which melting point is on record?
**A.** 206.8 to 208.1 °C

**Q.** For `CC(=O)Nc1ccc(CCNc2ncnc3c2ccn3Cc2ccccc2)cc1` [Example 47, N-{4-[2-(7-Benzyl-7H-pyrrolo[2,3-d]pyrimidin-4-ylamino)-ethyl]-phenyl}-acetamide], which melting point is on record?
**A.** 228 to 229.5 °C
